# Legend:
# irritant-induced cough = details: healthy human volunteers; Phase II; cited from earlier work
# [1] = LC/MS/MS measurement of carcainium chloride concentrations in human plasma; assay type: in vivo; details: patients administered 1 mg/kg carcainium chloride by inhalation; K2EDTA plasma
# Protocol: A liquid chromatography/tandem mass spectrometry (LC/MS/MS) assay method was developed, qualified, and implemented for the quantitation of carcainium chloride levels in K2EDTA human plasma samples collected from the human clinical study detailed above.
# Initially, carcainium chloride was dissolved in deionized water to provide an initial standard or quality control (QC) stock solution at a concentration of 1000 μg/mL. Serial dilutions were carried out with deionized water to provide secondary stock solutions for subsequent preparation of plasma calibration standards or QC samples according to Table 1 below. The internal standard lidocaine was dissolved in deionized water to provide an initial stock solution at a concentration of 1000 μg/mL. The initial internal standard stock solution was then serially diluted with deionized water to provide a spiking stock solution concentration of 50 ng/mL.
# A 10 μL aliquot of calibration standard stock solution or QC stock solution was transferred into individual 16×100 mm screw cap glass test tubes. For blank and blank with internal standard samples, 10 μL of deionized water was transferred instead. Human blank K2EDTA plasma (100 μL) was then added to each tube. A 50 μL aliquot of lidocaine internal standard spiking stock solution was transferred to each tube except for blank samples. A 50 μL aliquot of deionized water was added to blank samples. […]
# [2] = test system: intractable, persistent cough due to interstitial lung disease; assay: Double blind, randomized, placebo-controlled, cross-over clinical study of inhaled carcainium chloride; assay type: in vivo, human
# Excerpt: The aim of the clinical study was to determine the clinical effectiveness and safety of carcainium chloride by the inhaled route in hospital in-patients with intractable, persistent cough due to interstitial lung disease.
# A double blind, randomized, placebo-controlled, cross-over study design was used to assess the effect of carcainium chloride as an anti-tussive in patients with interstitial lung disease.
# The study was constructed as an adaptive contingency trial. In such a trial the outcome of each “test” of the drug against placebo is scored as either a positive or negative result (i.e. a binary decision, rather than a quantitative measure). Based on the outcome of this “test”, the trial either continues or halts. Patients attended two study visits where they were randomised to receive either: • carcainium chloride at a dose of 1.0 mg/kg on the first study visit followed by placebo (sodium chloride 0.9%) on the second visit; or • placebo (sodium chloride 0.9%) on the first visit followed by carcainium chloride at 1.0 mg/kg on the second visit.
# Assessment of each patient was based on the following criteria. • 1 A physician's professional judgment of individual patient responses in a double blind crossover study with carcainium chloride and placebo in terms of anti-tussive action. • 2. Each patient's subjective comfort using a visual analogue scale (VAS), pre- and post-treatment. • 3. Each patient's coughs recorded in pre- and post-treatment periods for active and placebo treatments.
# Carcainium chloride is a fine white dry powder and was provided in tightly closed vessels and stored in dark at room temperature upon receipt. The vehicle used for the dilution of carcainium chloride and for the placebo was 0.9% NaCl injection.
# Patients were then administered the active or placebo sample, according to the above schedule, as an aerosol generated using an ultrasonic nebulizer (DeVilbiss Ultraneb).
# In 8 out of 8 trials, the two physicians acting in concert successfully identified the active treatment carcainium chloride. The outcome of this assessment or “test” after each study treatment administered was either a success in which an ‘anti-tussive’ effect was observed (i.e. positive) or a failure which was defined as no change from baseline or pro-tussive effect (i.e. negative). The clinical investigator decided on a positive or negative outcome for each “test” in a blinded fashion. The statistical significance of this finding is <0.05 by contingency table, 0.05-0.01 by Chi square.
# This was assessed on a 0-10 equal interval scale in the pre-drug and post-drug periods for active drug and placebo periods.
# The frequency of cough (number per unit time) was recorded using a semi-automated system which records cough epochs (sounds) that are counted by a qualified technician.
smiles,measurement,setting,value
"C[N+](C)(CC(=O)Nc1ccccc1)CC(=O)Nc1ccccc1.[Cl-] [carcainium chloride, N,N-Bis-(phenylcarbamoylmethyl) dimethylammonium chloride]",melting point,,177 to 178 °C
same,Ability to inhibit cough (increase of the amount of irritant required to induce cough),irritant-induced cough,no statistically significant ability to inhibit cough
same,Concentration of carcainium chloride in plasma samples,[1],1 to 50 ng/mL
same,Drug related adverse side effects in the human clinical study,[2]; 1 mg/kg inhaled,no significant drug related adverse side effects
same,Number of coughs recorded electronically (frequency of cough),"[2]; 1.0 mg/kg inhaled vs placebo, p=0.0007",statistically significant treatment effect
same,"Patient comfort score (VAS, 0-10 scale), pre- and post-drug","[2]; 1.0 mg/kg inhaled vs placebo, p=0.0140 by sum of signed ranks",statistically significant improvement in patient well-being
same,Physician assessment: trials in which the two physicians successfully identified the active treatment (anti-tussive effect),"[2]; 1.0 mg/kg inhaled, ultrasonic nebulizer, vs placebo 0.9% NaCl, blinded, significance <0.05 by contingency table, 0.05-0.01 by Chi square",8 out of 8
same,"Anti-tussive activity, summary of the clinical study","[2]; preliminary analysis, all three measures statistically significant",marked anti-tussive activity

# From US20140242174A1, “TREATING COUGH AND TUSSIVE ATTACKS” (VERONA PHARMA PLC, priority 2011, published 2014)
